Reference: patent publication US20240409558A1, “IRREVERSIBLE INHIBITORS OF KRAS” (BIOMEA FUSION, INC., priority 2021, published 2024)

system: human KRAS G12C mutated cell line MIA PaCa-2; test: Inhibition of proliferation of MIA PaCa-2 cells (CellTiter-Glo, 7 day); assay type: cell-based; details: 168 h, Table 2, CellTiter-Glo luminescence read on day 7, read-out: MIA PaCa-2 IC50
From the text: The present example evaluates the ability of compounds provided herein to inhibit proliferation of KRAS mutant cells.
The proliferation inhibitory effect was investigated in the human KRAS G12C mutated cell line MIA PaCa-2 (Yunis et al., 1977, Int. J. Cancer 19(1):128-135; ATCC catalog no. CRL-1420). Cells were maintained in RPMI-1640 medium (ThermoFisher catalog no. 61870036) supplemented with 10% of Heat Inactivated FBS (ThermoFisher catalog no. A31605) and 1% Pen-Strep (ThermoFisher catalog no. 10378016) and cultured at 37° C. in a humidified incubator with 5% CO2. Cell lines were grown by adhering to culture flasks, and the cells were maintained in a range 70%-80% confluency.
ATP is present in all metabolically active cells and is considered as a marker for cell viability and proliferation. Metabolic cell activity was determined using the CellTiter-Glo kit (Promega catalog no. G7572), an ATP monitoring system based on the production of luminescence by the reaction of ATP with added UltraGlo® recombinant luciferase (Kawano et al., 2016, PLOS One, 8; 11(7):e0158888), according to the supplier's experimental recommendations. The assay was based on a 96 well plate format.
Test compounds were dissolved at 10 mM in DMSO (Sigma catalog no. D8418; purity >99.9%) and stored at −20° C. Eight concentrations of test compound were assessed in duplicate in an individual test occasion in parallel in the selected cell lines. MRTX-849 and AMG-510 were used as reference compounds and tested in duplicate at eight concentrations. 100% of proliferation is represented by the untreated cells (0.2% DMSO).
(§1) On the day of the experiment (TO), cells were detached with TrypLE (ThermoFisher catalog no. 12604054) and quantified using the Vi-CELL XR Cell Viability (Beckman Coulter) analyzer and diluted with fresh medium to obtain the cell density of about 1000 cells per 200 μL medium. 200 μL of cell suspension were added into wells in the 96 well plate.
After 2 hours from seeding cells, compounds were added using a D300e compound dispenser (Tecan Trading AG) at desired concentrations with shaking between each compound dispensed. Cell plates containing 200 μL/well were incubated at 37° C. in a humidified incubator with 5% CO2.
On day T3, 150 μL of growth media per well were removed from plates containing the samples, 150 uL fresh growth media were added to each well, and fresh compounds were added using a D300e compound dispenser (Tecan Trading AG) at desired concentrations with shaking between each compound dispensed. Cell plates containing 200 uL/well were incubated at 37° C. in a humidified incubator with 5% CO2. On day T7 plates containing the samples were equilibrated at room temperature for approximately 15 min, and then 40 μL/well of the Promega CellTiterGlo® reagent was added. Contents were mixed for 30 minutes on an orbital shaker to induce cell lysis. Luminescence was read using a Synergy Neo 2 (Agilent Technologies.
Data was expressed as % of inhibition compared to the 0.2% DMSO negative control, and is calculated as follows: % inhibition=100−[(RLU sample)×100/(RLU controls*)], where * indicates the average for 0.2% DMSO. […]
as §1, with “12604054),” for “12604054) and”, “resuspended in” for “diluted with”, “at a” for “to obtain the”, “to each well of a” for “into wells in the”
Two hours after seeding cells, compounds were added at desired concentrations using a D300e compound dispenser (Tecan Trading AG) with shaking after each compound addition. Assay plates were incubated at 37° C. in a humidified incubator with 5% CO2.
On day 3 (T3) 150 μL of medium from assay plates were removed. 150 μL fresh medium and compounds were added at desired concentrations using a D300e compound dispenser (Tecan Trading AG) with shaking after each compound addition. […]

SMILES | IC50 [µM]
Oc1cc(Cl)c(C2CC2)c(-c2ccc3c(C4CC5CCC(C4)N5)nc(OCC45CCCN4CC(F)C5)nc3c2F)c1 (stereo not shown) [Compound 205] | 0.358

same assay, conditions: 168 h, Table 3, 7 day, mean, read-out: MIA PaCa-2 IC50 (μM) 7 day Mean

IC50 [µM] | SMILES
0.858 | C=CC(=O)N1CCC(C)(c2nc(OC[C@@]34CCCN3C[C@H](F)C4)nc3c(F)c(-c4cc(O)cc(Cl)c4C4CC4)ncc23)CC1 [Compound 335]
> 1 | C=CC(=O)N1C[C@H]2C[C@@H]1CN2c1nc(OC[C@@]23CCCN2C[C@H](F)C3)nc2cc(-c3cc(O)cc(Cl)c3C3CC3)c(F)cc12 [Compound 318, 1-[(1R,4R)-5-[7-(3-chloro-2-cyclopropyl-5-hydroxy-phenyl)-6-fluoro-2-[[(2R,8S)-2-fluoro-1,2,3,5,6,7-hexahydropyrrolizin-8-yl]methoxy]quinazolin-4-yl]-2,5-diazabicyclo[2.2.1]heptan-2-yl]prop-2-en-1-one]
> 1 | C=CC(=O)N1CCN(c2nc(OC[C@@]34CCCN3C[C@H](F)C4)nc3cc(-c4cccc5cccc(Cl)c45)c(F)cc23)C2(CC2)C1 [Compound 315]
0.0144 | C=CC(=O)N1CCC(c2nc(OC[C@@]34CCCN3C[C@H](F)C4)nc3c(F)c(-c4cc(O)cc(Cl)c4C4CC4)ncc23)CC1 [Compound 329]

SMILES | IC50 [µM]
C=CC(=O)N1C2CCC1CN(c1nc(OC[C@@]34CCCN3C[C@H](F)C4)nc3cc(-c4cc(O)cc(Cl)c4C4CC4)cnc13)C2 [Compound 309] | > 1
C=CC(=O)N1C2CCC1CN(c1nc(OC[C@@]34CCCN3C[C@H](F)C4)nc3c(F)c(N4CC(O)Cc5cccc(Cl)c54)ncc13)C2 (stereo partly drawn) [Compound 328, 1-[3-[7-(8-chloro-3-hydroxy-3,4-dihydro-2H-quinolin-1-yl)-8-fluoro-2-[[(2R,8S)-2-fluoro-1,2,3,5,6,7-hexahydropyrrolizin-8-yl]methoxy]pyrido[4,3-d]pyrimidin-4-yl]-3,8-diazabicyclo[3.2.1]octan-8-yl]prop-2-en-1-one] | > 1
C=CC(=O)N1C2CCC1CN(c1nc(OC[C@@]34CCCN3C[C@H](F)C4)nc3c(F)c(-c4c(C)c(Cl)cc5[nH]ncc45)ncc13)C2 [Compound 304, 1-[3-[7-(6-chloro-5-methyl-1H-indazol-4-yl)-8-fluoro-2-[[(2R,8S)-2-fluoro-1,2,3,5,6,7-hexahydropyrrolizin-8-yl]methoxy]pyrido[4,3-d]pyrimidin-4-yl]-3,8-diazabicyclo[3.2.1]octan-8-yl]prop-2-en-1-one] | 0.017

same assay, conditions: 168 h, Table 4, 7 day, mean, read-out: MIA PaCa-2 IC50 (μM) 7 day Mean

SMILES | IC50 [µM]
F[C@H]1CN2CCC[C@@]2(COc2nc(N3CC4CCC(C3)N4)c3ccc(-c4cccc5cccc(Cl)c45)cc3n2)C1 [Compound 423] | > 1
Oc1cccc(Cl)c1-c1cc(F)c2c(N3CCNCC34CC4)nc(OC[C@@]34CCCN3C[C@H](F)C4)nc2c1 [Compound 419, 3-chloro-2-[4-(4,7-diazaspiro[2.5]octan-4-yl)-5-fluoro-2-[[(2R,8S)-2-fluoro-1,2,3,5,6,7-hexahydropyrrolizin-8-yl]methoxy]quinazolin-7-yl]phenol] | > 1
Oc1cccc(Cl)c1-c1cc(OCC23CCCN2C[C@H](F)C3)c2c(N3CCNCC34CC4)nc(OC[C@@]34CCCN3C[C@H](F)C4)nc2c1 (stereo partly drawn) [Compound 420, 3-chloro-2-[4-(4,7-diazaspiro[2.5]octan-4-yl)-5-[[(2R)-2-fluoro-1,2,3,5,6,7-hexahydropyrrolizin-8-yl]methoxy]-2-[[(2R,8S)-2-fluoro-1,2,3,5,6,7-hexahydropyrrolizin-8-yl]methoxy]quinazolin-7-yl]phenol] | > 1
Fc1cc2c(N3CCNCC34CC4)nc(OC[C@@]34CCCN3C[C@H](F)C4)nc2cc1-c1cccc2cccc(Cl)c12 [Compound 408, 7-(8-chloro-1-naphthyl)-4-(4,7-diazaspiro[2.5]octan-4-yl)-6-fluoro-2-[[(2R,8S)-2-fluoro-1,2,3,5,6,7-hexahydropyrrolizin-8-yl]methoxy]quinazoline] | > 1
OC1Cc2cccc(Cl)c2N(c2ncc3c(N4CC5CCC(C4)N5)nc(OC[C@@]45CCCN4C[C@H](F)C5)nc3c2F)C1 (stereo partly shown) [Compound 432] | > 1
Oc1cc(Cl)c(C2CC2)c(-c2cc3nc(OC[C@@]45CCCN4C[C@H](F)C5)nc(N4CC5CCC(C4)N5)c3cc2F)c1 [Compound 404, 3-chloro-4-cyclopropyl-5-[4-(3,8-diazabicyclo[3.2.1]octan-3-yl)-6-fluoro-2-[[(2R,8S)-2-fluoro-1,2,3,5,6,7-hexahydropyrrolizin-8-yl]methoxy]quinazolin-7-yl]phenol] | > 1
Oc1cc(-c2ncc3c(C4CC5CCC(C4)N5)nc(OC[C@@]45CCCN4C[C@H](F)C5)nc3c2F)c2c(F)c(F)ccc2c1 (stereo partly drawn) [Compound 443, 4-[4-(8-azabicyclo[3.2.1]octan-3-yl)-8-fluoro-2-[[(2R,8S)-2-fluoro-1,2,3,5,6,7-hexahydropyrrolizin-8-yl]methoxy]pyrido[4,3-d]pyrimidin-7-y1]-5,6-difluoro-naphthalen-2-ol] | > 1
Cn1ccnc1-c1c(F)cccc1-c1cnc2c(N3CC4CCC(C3)N4)nc(OC[C@@]34CCCN3C[C@H](F)C4)nc2c1 [Compound 427, 4-(3,8-diazabicyclo[3.2.1]octan-3-yl)-2-[[(2R,8S)-2-fluoro-1,2,3,5,6,7-hexahydropyrrolizin-8-yl]methoxy]-7-[3-fluoro-2-(1-methylimidazol-2-yl)phenyl]pyrido[3,2-d]pyrimidine] | > 1

The next lines start with the values.

IC50 [µM] | SMILES
> 1 | Oc1cc(Cl)c(C2CC2)c(-c2cc3nc(OC[C@@]45CCCN4C[C@H](F)C5)nc(N4C[C@H]5C[C@@H]4CN5)c3cc2F)c1 [Compound 417]
> 1 | Oc1cc(Cl)c(C2CC2)c(-c2cnc3c(N4C[C@H]5C[C@@H]4CN5)nc(OC[C@@]45CCCN4C[C@H](F)C5)nc3c2)c1 [Compound 406, 3-chloro-4-cyclopropyl-5-[4-[(1R,4R)-2,5-diazabicyclo[2.2.1]heptan-2-yl]-2-[[(2R,8S)-2-fluoro-1,2,3,5,6,7-hexahydropyrrolizin-8-yl]methoxy]pyrido[3,2-d]pyrimidin-7-yl]phenol]
> 1 | Oc1cc(Cl)c(C2CC2)c(-c2cc3nc(OC[C@@]45CCCN4C[C@H](F)C5)nc(N4CCNC5(CC5)C4)c3cc2F)c1 [Compound 405, 3-chloro-4-cyclopropyl-5-[4-(4,7-diazaspiro[2.5]octan-7-y1)-6-fluoro-2-[[(2R,8S)-2-fluoro-1,2,3,5,6,7-hexahydropyrrolizin-8-yl]methoxy]quinazolin-7-yl]phenol]
0.607 | Oc1cc(Cl)c(C2CC2)c(-c2ccc3c(N4CCNCC45CC5)nc(OC[C@@]45CCCN4C[C@H](F)C5)nc3c2F)c1 [Compound 425, 3-chloro-4-cyclopropyl-5-[4-(4,7-diazaspiro[2.5]octan-4-yl)-8-fluoro-2-[[(2R,8S)-2-fluoro-1,2,3,5,6,7-hexahydropyrrolizin-8-yl]methoxy]quinazolin-7-y1]phenol]
8.87 | CC1(c2nc(OC[C@@]34CCCN3C[C@H](F)C4)nc3c(F)c(-c4cc(O)cc(Cl)c4C4CC4)ncc23)CCNCC1 [Compound 442, 3-chloro-4-cyclopropyl-5-[8-fluoro-2-[[(2R,8S)-2-fluoro-1,2,3,5,6,7-hexahydropyrrolizin-8-yl]methoxy]-4-(4-methyl-4-piperidyl)pyrido[4,3-d]pyrimidin-7-yl]phenol]
> 1 | Fc1cc2c(N3CCNC4(CC4)C3)nc(OC[C@@]34CCCN3C[C@H](F)C4)nc2cc1-c1cccc2cccc(Cl)c12 [Compound 421, 7-(8-chloro-1-naphthyl)-4-(4,7-diazaspiro[2.5]octan-7-y1)-6-fluoro-2-[[(2R,8S)-2-fluoro-1,2,3,5,6,7-hexahydropyrrolizin-8-yl]methoxy]quinazoline]
